Reference: PubChem BioAssay (NCI)
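Exposure lasted 48 hours, with cells grown in 96-well plates and compounds tested at five concentrations. GI50 is the concentration that inhibits growth by half. Definition used: TGI = concentration required for complete inhibition of growth.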

Assays:
Test in all cases: NCI tumour cell line growth inhibition, 48 h
SNB-19 CNS = tested on: SNB-19 CNS
OVCAR-3 ovarian = tested on: OVCAR-3 ovarian
KM12 colon = tested on: KM12 colon
HS 578T breast = tested on: HS 578T breast
786-0 renal = tested on: 786-0 renal
K-562 leukemia = tested on: K-562 leukemia
SN12C renal = tested on: SN12C renal
UACC-62 melanoma = tested on: UACC-62 melanoma
OVCAR-4 ovarian = tested on: OVCAR-4 ovarian
NCI-H522 lung = tested on: NCI-H522 lung

| SMILES | TGI (SNB-19 CNS) | TGI (OVCAR-3 ovarian) | TGI (KM12 colon) | TGI (HS 578T breast) | TGI (786-0 renal) | TGI (K-562 leukemia) | TGI (SN12C renal) | TGI (UACC-62 melanoma) | TGI (OVCAR-4 ovarian) | TGI (NCI-H522 lung) | GI50 (SNB-19 CNS) | GI50 (NCI-H522 lung) | GI50 (OVCAR-3 ovarian) | GI50 (KM12 colon) | GI50 (HS 578T breast) | GI50 (K-562 leukemia) | GI50 (SN12C renal) | GI50 (UACC-62 melanoma) | GI50 (OVCAR-4 ovarian) |
| --- | --- | --- | --- | --- | --- | --- | --- | --- | --- | --- | --- | --- | --- | --- | --- | --- | --- | --- | --- |
| CCCCCCOc1ccc(NC2=C(Cl)C(=O)c3ncccc3C2=O)cc1 | 4.51 µM | 6.25 µM | 3.14 µM | 9 µM | 5.75 µM | > 10 µM | 3.12 µM | 2.75 µM |  |  |  |  |  |  |  |  |  |  |  |
| O=C(O)C1SCCS1 | > 100 µM | > 100 µM |  |  | > 100 µM | > 100 µM | > 100 µM | > 100 µM | > 100 µM |  |  |  |  |  |  |  |  |  |  |
| COc1ccc2c(c1)CC[C@@H]1[C@@H]2CC[C@]2(C)C(=O)/C(=C/c3cc(OC)c(OC)c(OC)c3)C[C@@H]12 | > 100 µM | 33.7 µM | 82.9 µM |  | 39 µM |  |  | > 100 µM | > 100 µM |  |  |  |  |  |  |  |  |  |  |
| CC(=N\N=C\c1ccccn1)/C(C)=N/N=C(C)/C(C)=N/N=C(C)/C(C)=N/N=C/c1ccccn1 | > 100 µM | > 100 µM | > 100 µM | > 100 µM | > 100 µM | > 100 µM | > 100 µM |  | > 100 µM | > 100 µM |  |  |  |  |  |  |  |  |  |
| N#Cc1nc(/C=C/c2ccccc2)oc1N | > 100 µM | > 100 µM | > 100 µM | > 100 µM | > 100 µM | > 100 µM | > 100 µM |  | > 100 µM | > 100 µM |  |  |  |  |  |  |  |  |  |
| C/C=C\C(CC(=O)NCCC1CN(C(=O)c2ccccc2)c2ccccc21)CC(=O)OC (stereo not given) | > 100 µM | > 100 µM | > 100 µM | > 100 µM | > 100 µM | > 100 µM |  | > 100 µM | > 100 µM | > 100 µM |  |  |  |  |  |  |  |  |  |
| OCCO[P+]1(OCCO)n2c3ccc2C(c2ccccc2)=C2C=CC(=N2)C(c2ccccc2)=c2ccc(n21)=C(c1ccccc1)C1=NC(=C3c2ccccc2)C=C1 | 1.96 µM | 1.34 µM | 0.21 µM | 0.206 µM | 1.28 µM | 18 µM | 0.125 µM |  | 2.17 µM | 0.2 µM |  |  |  |  |  |  |  |  |  |
| N#Cc1c(N2CCN(c3ccc([N+](=O)[O-])cc3)CC2)[n+](=O)c2ccc(Cl)cc2n1[O-] | > 32.8 µM |  | 13.3 µM | > 100 µM | 4.58 µM | > 100 µM | 3.05 µM |  | 9.52 µM | 2.36 µM |  |  |  |  |  |  |  |  |  |
| c1ccc(C2=C(c3ccccc3)P(c3ccccc3)C2)cc1 (stereo not given) |  | > 100 µM | > 100 µM | > 100 µM | > 100 µM |  | > 100 µM |  | > 100 µM | > 100 µM |  |  |  |  |  |  |  |  |  |
| COc1ccc2c(c1)-c1oc3ccccc3c(=O)c1CO2 |  | > 100 µM | > 100 µM |  | > 100 µM | > 100 µM | 77.9 µM | > 100 µM |  | > 100 µM |  |  |  |  |  |  |  |  |  |
| O=C(C#Cc1cn(C2CC(O)C(CO)O2)c(=O)[nH]c1=O)c1ccccc1 (stereo not given) | > 100 µM | 37.7 µM | > 100 µM | > 100 µM | > 100 µM |  | > 100 µM | > 100 µM | > 100 µM | 17.7 µM |  |  |  |  |  |  |  |  |  |
| COC(=O)c1ccccc1CC(Cc1ccccc1)C(=O)OC (stereo not given) | > 100 µM | > 100 µM | > 100 µM | > 100 µM | > 100 µM | > 100 µM | > 100 µM |  | > 100 µM | > 100 µM |  |  |  |  |  |  |  |  |  |
| Clc1ncnc2c1ncn2CCCCCCCCCCCCn1cnc2c(Cl)ncnc21 | 27.8 µM | 23.3 µM | 28.9 µM |  | 71.8 µM | 17.4 µM | 37.5 µM | 26.9 µM | 23.3 µM | 2.87 µM |  |  |  |  |  |  |  |  |  |
| Nc1nc(SCCC/C=C/I)nc2c1ncn2C1OC(CO)C(O)C1O (stereo not given) | > 202 µM | > 202 µM | > 202 µM |  | > 202 µM | > 202 µM | > 202 µM | > 202 µM | > 202 µM | > 202 µM |  |  |  |  |  |  |  |  |  |
| CCS(=O)(=O)c1c2cc(OC)ccc2nc2ccc(OC)cc12 | > 100 µM | > 100 µM | > 100 µM |  | > 100 µM | > 100 µM | > 100 µM | > 100 µM | > 100 µM | > 100 µM |  |  |  |  |  |  |  |  |  |
| CCOC12SC(=Nc3ccc(C)cc3)NN1C(=S)N(C)N=C2C (stereo not given) | > 100 µM |  | > 100 µM |  | > 100 µM | > 100 µM | > 100 µM | > 100 µM | > 100 µM | > 100 µM |  |  |  |  |  |  |  |  |  |
| COC(=O)CCN(CCC(=O)OC)C1CC1 | > 100 µM |  | > 100 µM | > 100 µM | > 100 µM | > 100 µM | > 100 µM | > 100 µM | > 100 µM |  |  |  |  |  |  |  |  |  |  |
| COc1cc(C(SCc2ccccc2)SCc2ccccc2)ccc1O | > 10 µM | > 10 µM | > 10 µM | > 10 µM | > 10 µM | > 10 µM | > 10 µM | > 10 µM |  | > 10 µM |  |  |  |  |  |  |  |  |  |
| O=C(Nc1cccc(-n2ccc3c(NC(=O)c4ccccc4)nccc32)c1)c1cc(N2CCOCC2)cc(C(F)(F)F)c1 | > 100 µM | 0.0605 µM |  | 32.6 µM |  | > 100 µM | > 100 µM | > 44.2 µM | > 100 µM |  | 0.379 µM | 0.0269 µM | 0.0259 µM | 0.0628 µM | 0.0621 µM | 0.0506 µM | 0.467 µM | 0.0511 µM | 0.175 µM |
| CN1CC2CC(C1)c1cccc(=O)n1C2 (stereo not given) | > 100 µM | > 100 µM | > 100 µM | > 100 µM | > 100 µM |  | > 100 µM | > 100 µM | > 100 µM | > 100 µM |  |  |  |  |  |  |  |  |  |
| Cc1ccc2nc(Cl)c(/C=N/N3C(=O)/C(=C/c4ccc(N(C)C)cc4)N=C3c3ccccc3)cc2c1 | > 100 µM | 44.9 µM | > 100 µM | > 100 µM | > 100 µM | > 100 µM | > 100 µM | > 100 µM | > 100 µM |  |  |  |  |  |  |  |  |  |  |
| Cc1c(F)c(N)c2c(=O)cc(-c3ccc(NC(=O)C(N)CCCN=C(N)N)c(F)c3)oc2c1F (stereo not given) | > 100 µM |  | 99.7 µM | 71.9 µM | > 100 µM | > 100 µM | 45.2 µM |  | 40.7 µM | 97.7 µM |  |  |  |  |  |  |  |  |  |
| CN1CCCCC(C(O)(c2ccccc2)c2ccccc2)C1=O (stereo not given) | > 100 µM | > 100 µM | > 100 µM |  | > 100 µM | > 100 µM | > 100 µM | > 100 µM | > 100 µM | > 100 µM |  |  |  |  |  |  |  |  |  |
